One data set has as its system hMSCs. The data set can be described thus: Cell viability of hMSCs after estradiol treatment (photographs). It counts as cell-based, human. To be noted: estradiol treatment for 4 days (FIG. 2C).
Data set [1] has as its system animal models for human diseases. The following applies: administration of recombinant TSG-6; cited from earlier work.

This is an account of results in patent US20190048054A1, “Mesenchymal Stem Cells Expressing Biomarkers that Predict the Effectiveness of Mesenchymal Stem Cells for Treating Diseases and Disorders” (priority 2014, published 2019).

Turning to `C[C@]12CC[C@@H]3c4ccc(O)cc4CC[C@H]3[C@@H]1CC[C@@H]2O` [estradiol], the cell viability result in the data set on hMSCs is given as “without affecting cell viability”.
Regarding “recombinant TSG-6: naturally occurring anti-inflammatory protein of 35 kDa, SEQ ID NO: 1; given as recombinant protein”, in data set [1], the “beneficial effects compared with hMSCs” value is “reproduced most of the beneficial effects of the hMSCs”.
